From patent publication US5210193A, “Piperazine derivatives” (American Cyanamid Company, priority 1990, dated 1993)
≈ marks a conversion by molar mass, not a printed value.

Columns and labels:
Assay in all cases: in vitro antibacterial MIC, agar plate dilution
Assay type in all cases: cell-based
[1] = test system: Acinetobacter calcoaceticus MOR 84-43; conditions: MOR8443, 18 hours, 35° C., read-out: MIC
Outline: (§1)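 Read-out is visible growth inhibition on Mueller-Hinton agar dilution plates incubated 18 hours at 35° C after inoculation of ~10^4 CFU (Steers device), with MIC reported in mcg/ml.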

[2] = test system: Enterobacter aerogenes VGH 84-36; conditions: Klebsiella aerogenes, VGH8436, 18 hours, 35° C., read-out: MIC
Outline: as §1

[3] = test system: Enterobacter cloacae K 84-10; conditions: Enterobacter cloacae, K8410, 18 h, 35° C., read-out: MIC
Outline: as §1

[4] = test system: Enterobacter cloacae VGH 84-37; conditions: Enterobacter cloacae, VGH8437, 18 h, 35° C., read-out: MIC
Outline: as §1

[5] = test system: Escherichia coli ATCC 25922; conditions: Escherichia coli, ATCC25922, 18 h, 35° C., read-out: MIC
Outline: as §1

[6] = test system: Escherichia coli CMC 84-11; conditions: Escherichia coli, CMC8411, 18 h, 35° C., read-out: MIC
Outline: as §1

[7] = test system: Escherichia coli CMC 84-16; conditions: Escherichia coli, CMC8416, 18 h, 35° C., read-out: MIC
Outline: as §1

[8] = test system: Escherichia coli NAR 311; conditions: NAR311, 18 hours, 35° C., read-out: MIC
Outline: as §1

[9] = test system: Escherichia coli PRNT 311; conditions: PRNT311, 18 hours, 35° C., read-out: MIC
Outline: as §1

[10] = test system: Klebsiella oxytoca MOR 84-28; conditions: MOR8428, 18 hours, 35° C.
Outline: as §1

[11] = test system: Klebsiella pneumoniae AD; conditions: Klebsiella pneumoniae, 18 h, 35° C., read-out: MIC
Outline: as §1

[12] = test system: Klebsiella pneumoniae MOR 84-4; conditions: Klebsiella pneumoniae, MOR844, 18 h, 35° C., read-out: MIC
Outline: as §1

[13] = test system: Morganella morganii CMC 84-37; conditions: Morganella morganii, CMC8437, 18 h, 35° C., read-out: MIC
Outline: as §1

[14] = test system: Morganella morganii VGH 84-11; conditions: VGH8411, 18 hours, 35° C., read-out: MIC
Outline: as §1

[15] = test system: Proteus rettgeri CMC 84-41; conditions: Providencia rettgeri, CMC8441, 18 h, 35° C., read-out: MIC
Outline: as §1

[16] = test system: Pseudomonas aeruginosa LL-1244; conditions: Pseudomonas aeruginosa, LL1244, 18 h, 35° C., read-out: MIC
Outline: as §1

[17] = test system: Pseudomonas aeruginosa VGH 84-4; conditions: Pseudomonas aeruginosa, VGH844, 18 h, 35° C., read-out: MIC
Outline: as §1

[18] = test system: Serratia marcescens F 0-35; conditions: Serratia marcescens, F035, 18 h, 35° C., read-out: MIC
Outline: as §1

[19] = test system: Serratia marcescens K 84-18; conditions: Serratia marcescens, K8418, 18 h, 35° C., read-out: MIC
Outline: as §1

[20] = test system: Staphylococcus Spp saprophiticus VGH 84-50; conditions: 18 hours, 35° C., read-out: MIC
Outline: as §1

[21] = test system: Staphylococcus aureus ATCC 25913; conditions: ATCC25913, 18 hours, 35° C.
Outline: as §1

[22] = test system: Staphylococcus aureus ATTC 29213; conditions: Staphylococcus aureus, ATTC29213, 18 h, 35° C., read-out: MIC
Outline: as §1

[23] = test system: Staphylococcus aureus CMC 83-127; conditions: Staphylococcus aureus, CMC83127, 18 h, 35° C., read-out: MIC
Outline: as §1

[24] = test system: Staphylococcus aureus CMC 83-128; conditions: CMC83128, 18 hours, 35° C., read-out: MIC
Outline: as §1

[25] = test system: Staphylococcus aureus Smith; conditions: Staphylococcus aureus, 18 h, 35° C., read-out: MIC
Outline: as §1

[26] = test system: Staphylococcus aureus VGH 84-45; conditions: Staphylococcus aureus, VGH8445, 18 h, 35° C., read-out: MIC
Outline: as §1

[27] = test system: Staphylococcus aureus VGH 84-46; conditions: Staphylococcus aureus, VGH8446, 18 h, 35° C., read-out: MIC
Outline: as §1

[28] = test system: Staphylococcus epidermidis CMC 83-135; conditions: CMC83135, 18 hours, 35° C., read-out: MIC
Outline: as §1

[29] = test system: Staphylococcus epidermidis IO 83-58; conditions: IO8358, 18 hours, 35° C., read-out: MIC
Outline: as §1

[30] = test system: Staphylococcus epidermidis VGH 84-40; conditions: VGH8440, 18 hours, 35° C., read-out: MIC
Outline: as §1

[31] = test system: Streptococcus faecalis ATTC 29212; conditions: Enterococcus faecalis, ATTC29212, 18 hours, 35° C., read-out: MIC
Outline: as §1

[32] = test system: Streptococcus faecalis VGH 84-65; conditions: Enterococcus faecalis, VGH8465, 18 h, 35° C., read-out: MIC
Outline: as §1

SMILES | MIC [1] | MIC [2] | MIC [3] | MIC [4] | MIC [5] | MIC [6] | MIC [7] | MIC [8] | MIC [9] | MIC [10] | MIC [11] | MIC [12] | MIC [13] | MIC [14] | MIC [15] | MIC [16] | MIC [17] | MIC [18] | MIC [19] | MIC [20] | further results
CCn1cc(C(=O)O)c(=O)c2cc(F)c(N3CCNC(c4ccco4)C3)cc21 (centres unmarked) [Example 28, 1-Ethyl-6-fluoro-7-[3-(2-furanyl)-1-piperazinyl]-1,4-dihydro-4-oxo-3-quinolinecarboxylic acid] | 2 µg/mL (≈ 5.19 µM) | 0.5 µg/mL (≈ 1.3 µM) | 0.25 µg/mL (≈ 0.649 µM) | ≤ 0.12 µg/mL | ≤ 0.12 µg/mL | ≤ 0.12 µg/mL | ≤ 0.12 µg/mL | 4 µg/mL (≈ 10.4 µM) | 0.5 µg/mL (≈ 1.3 µM) | 0.5 µg/mL (≈ 1.3 µM) | ≤ 0.12 µg/mL | 0.25 µg/mL (≈ 0.649 µM) | 0.25 µg/mL (≈ 0.649 µM) | 0.25 µg/mL (≈ 0.649 µM) | 0.25 µg/mL (≈ 0.649 µM) | 32 µg/mL (≈ 83 µM) | 4 µg/mL (≈ 10.4 µM) | 1 µg/mL (≈ 2.59 µM) | 1 µg/mL (≈ 2.59 µM) | 1 µg/mL (≈ 2.59 µM) | MIC [21]: ≤ 0.12 µg/mL; MIC [22]: 0.25 µg/mL (≈ 0.649 µM); MIC [23]: ≤ 0.06 µg/mL; MIC [24]: ≤ 0.12 µg/mL; MIC [25]: ≤ 0.12 µg/mL; MIC [26]: ≤ 0.06 µg/mL; MIC [27]: ≤ 0.12 µg/mL; MIC [28]: ≤ 0.12 µg/mL; MIC [29]: 0.25 µg/mL (≈ 0.649 µM); MIC [30]: ≤ 0.12 µg/mL; MIC [31]: 2 µg/mL (≈ 5.19 µM); MIC [32]: 2 µg/mL (≈ 5.19 µM)
CCn1cc(C(=O)O)c(=O)c2cc(F)c(N3CCNC(CNC)C3)cc21.Cl.Cl (centres unmarked) [Example 53, 1-Ethyl-6-fluoro-1,4-dihydro-7-[3-[(methylamino)methyl]-1-piperazinyl]-4-oxo-3-quinolinecarboxylic acid, dihydrochloride] | > 128 µg/mL | 16 µg/mL | 8 µg/mL | 32 µg/mL | 16 µg/mL | 8 µg/mL | 4 µg/mL | > 128 µg/mL | 16 µg/mL | > 128 µg/mL | 64 µg/mL | 32 µg/mL | 32 µg/mL | 32 µg/mL | 32 µg/mL | > 128 µg/mL | > 128 µg/mL | 64 µg/mL | 128 µg/mL | 4 µg/mL | MIC [22]: 16 µg/mL; MIC [23]: 1 µg/mL; MIC [24]: 2 µg/mL; MIC [25]: 1 µg/mL; MIC [26]: 16 µg/mL; MIC [27]: 8 µg/mL; MIC [28]: 2 µg/mL; MIC [29]: 4 µg/mL; MIC [30]: 4 µg/mL; MIC [31]: 32 µg/mL; MIC [32]: 32 µg/mL
CCn1cc(C(=O)O)c(=O)c2cc(F)c(N3CCNC(c4ccc(C)s4)C3)cc21 (centres unmarked) [Example 37, 1-Ethyl-6-fluoro-1,4-dihydro-7-[3-(5-methyl-2-thienyl)-1-piperazinyl]-4-oxo-3-quinolinecarboxylic acid] | 8 µg/mL (≈ 19.3 µM) | 1 µg/mL (≈ 2.41 µM) | 1 µg/mL (≈ 2.41 µM) | 1 µg/mL (≈ 2.41 µM) | 1 µg/mL (≈ 2.41 µM) | 1 µg/mL (≈ 2.41 µM) | 0.5 µg/mL (≈ 1.2 µM) | 16 µg/mL (≈ 38.5 µM) | 2 µg/mL (≈ 4.81 µM) | 1 µg/mL (≈ 2.41 µM) | 2 µg/mL (≈ 4.81 µM) | 2 µg/mL (≈ 4.81 µM) | 0.5 µg/mL (≈ 1.2 µM) | 1 µg/mL (≈ 2.41 µM) | 1 µg/mL (≈ 2.41 µM) | 64 µg/mL (≈ 154 µM) | 16 µg/mL (≈ 38.5 µM) | 2 µg/mL (≈ 4.81 µM) | 2 µg/mL (≈ 4.81 µM) | 2 µg/mL (≈ 4.81 µM) | MIC [22]: 0.5 µg/mL (≈ 1.2 µM); MIC [23]: 0.12 µg/mL (≈ 0.289 µM); MIC [24]: 0.25 µg/mL (≈ 0.602 µM); MIC [25]: 0.5 µg/mL (≈ 1.2 µM); MIC [26]: 0.12 µg/mL (≈ 0.289 µM); MIC [27]: 0.5 µg/mL (≈ 1.2 µM); MIC [28]: 0.5 µg/mL (≈ 1.2 µM); MIC [29]: 0.5 µg/mL (≈ 1.2 µM); MIC [30]: 0.25 µg/mL (≈ 0.602 µM); MIC [31]: 4 µg/mL (≈ 9.63 µM); MIC [32]: 4 µg/mL (≈ 9.63 µM)
CCn1cc(C(=O)O)c(=O)c2cc(F)c(N3CCN(C)C(c4sc5ccccc5c4C)C3)cc21 (centres unmarked) [Example 54, 1-Ethyl-6-fluoro-1,4-dihydro-7-[4-methyl-3-(3-methyl-benzo[b]thien-2-yl)-1-oiperazinyl]-4-oxo-3-quinolinecarboxylic acid] | > 256 µg/mL | > 256 µg/mL | > 256 µg/mL | > 256 µg/mL | > 256 µg/mL | > 256 µg/mL | > 256 µg/mL | > 256 µg/mL | > 256 µg/mL | > 256 µg/mL | > 256 µg/mL | > 256 µg/mL | > 256 µg/mL | > 256 µg/mL | > 256 µg/mL | > 256 µg/mL | > 256 µg/mL | > 256 µg/mL | > 256 µg/mL | > 256 µg/mL | MIC [22]: 256 µg/mL (≈ 534 µM); MIC [23]: 32 µg/mL (≈ 66.7 µM); MIC [24]: 64 µg/mL (≈ 133 µM); MIC [25]: 64 µg/mL (≈ 133 µM); MIC [26]: 256 µg/mL (≈ 534 µM); MIC [27]: > 256 µg/mL; MIC [28]: > 256 µg/mL; MIC [29]: > 256 µg/mL; MIC [30]: > 256 µg/mL; MIC [31]: > 256 µg/mL; MIC [32]: > 256 µg/mL
